Laboratory results published in PubChem BioAssay (NCI).
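Interpolation was linear, between the two tested concentrations surrounding the appropriate level; five concentrations were tested over 48 hours in 96-well plates. TGI: total growth inhibition.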

How the values were obtained:
Experiment in all cases: inhibition of tumour cell growth, NCI panel, 48 h
[1] = system: NCI-H522 lung
[2] = system: NCI-H226 lung
[3] = system: TK-10 renal
[4] = system: OVCAR-8 ovarian
[5] = system: MDA-MB-435
[6] = system: HS 578T breast
[7] = system: KM12 colon
[8] = system: MALME-3M melanoma
[9] = system: SF-295 CNS
[10] = system: SF-268 CNS
[11] = system: NCI-H23 lung
[12] = system: NCI-H460 lung
[13] = system: HCT-15 colon
[14] = system: ACHN renal
[15] = system: HOP-62 NSCLC
[16] = system: DU-145 prostate
[17] = system: SW-620 colon
[18] = system: RPMI-8226 leukemia
[19] = system: SN12C renal
[20] = system: M14 melanoma
[21] = system: SNB-75 CNS
[22] = system: UO-31 renal
[23] = system: HL-60(TB) leukemia
[24] = system: UACC-257 melanoma
[25] = system: RXF 393 renal
[26] = system: SK-MEL-28 melanoma
[27] = system: SK-OV-3 ovarian
[28] = system: SNB-19 CNS
[29] = system: BT-549 breast
[30] = system: SR leukemia
[31] = system: OVCAR-3 ovarian
[32] = system: MCF7 breast
[33] = system: MDA-MB-231 breast
[34] = system: HT29 colon
[35] = system: MDA-N
[36] = system: CCRF-CEM leukemia
[37] = system: PC-3 prostate
[38] = system: NCI/ADR-RES ovarian
[39] = system: 786-0 renal
[40] = system: A498 renal
[41] = system: CAKI-1 renal
[42] = system: MOLT-4 leukemia
[43] = system: IGROV1 ovarian
[44] = system: A549 NSCLC
[45] = system: HCC-2998 colon
[46] = system: OVCAR-5 ovarian
[47] = system: K-562 leukemia
[48] = system: T-47D breast
[49] = system: SK-MEL-2 melanoma
[50] = system: LOX IMVI melanoma
[51] = system: SK-MEL-5 melanoma
[52] = system: SF-539 CNS
[53] = system: U251 CNS
[54] = system: UACC-62 melanoma
[55] = system: EKVX NSCLC
[56] = system: HCT-116 colon
[57] = system: HOP-92 NSCLC
[58] = system: COLO 205 colon
[59] = system: OVCAR-4 ovarian

**Q.** Which TGI [1] does the source give for O=C(O)[C@@H]1CSCN1C(=O)[C@@H]1CCC(=S)N1 here?
**A.** > 100 µM

**Q.** What about the TGI [2] of the same compound?
**A.** > 100 µM

**Q.** What about the TGI [3] of the same compound?
**A.** > 100 µM

**Q.** What about the TGI [4] of the same compound?
**A.** > 100 µM

**Q.** What about the TGI [5] of the same compound?
**A.** > 100 µM

**Q.** And the TGI [6]?
**A.** > 100 µM

**Q.** And the TGI [7]?
**A.** > 100 µM

**Q.** What about the TGI [8] of the same compound?
**A.** > 100 µM

**Q.** What about the TGI [9] of the same compound?
**A.** > 100 µM

**Q.** What about the TGI [10] of the same compound?
**A.** > 100 µM

**Q.** What about the TGI [11] of the same compound?
**A.** > 100 µM

**Q.** And the TGI [12]?
**A.** > 100 µM

**Q.** And the TGI [13]?
**A.** > 100 µM

**Q.** And the TGI [14]?
**A.** > 100 µM

**Q.** What about the TGI [15] of the same compound?
**A.** > 100 µM

**Q.** And the TGI [16]?
**A.** > 100 µM

**Q.** And the TGI [17]?
**A.** > 100 µM

**Q.** And the TGI [18]?
**A.** > 100 µM

**Q.** What about the TGI [19] of the same compound?
**A.** > 100 µM

**Q.** And the TGI [20]?
**A.** > 100 µM

**Q.** And the TGI [21]?
**A.** > 100 µM

**Q.** And the TGI [22]?
**A.** > 100 µM

**Q.** What about the TGI [23] of the same compound?
**A.** > 100 µM

**Q.** And the TGI [24]?
**A.** > 100 µM

**Q.** And the TGI [25]?
**A.** > 100 µM

**Q.** What about the TGI [26] of the same compound?
**A.** > 100 µM

**Q.** And the TGI [27]?
**A.** > 100 µM

**Q.** What about the TGI [28] of the same compound?
**A.** > 100 µM

**Q.** What about the TGI [29] of the same compound?
**A.** > 100 µM

**Q.** And the TGI [30]?
**A.** > 100 µM

**Q.** And the TGI [31]?
**A.** > 100 µM

**Q.** What about the TGI [32] of the same compound?
**A.** > 100 µM

**Q.** What about the TGI [33] of the same compound?
**A.** > 100 µM

**Q.** And the TGI [34]?
**A.** > 100 µM

**Q.** And the TGI [35]?
**A.** > 100 µM

**Q.** What about the TGI [36] of the same compound?
**A.** > 100 µM

**Q.** What about the TGI [37] of the same compound?
**A.** > 100 µM

**Q.** What about the TGI [38] of the same compound?
**A.** > 100 µM

**Q.** And the TGI [39]?
**A.** > 100 µM

**Q.** And the TGI [40]?
**A.** > 100 µM

**Q.** And the TGI [41]?
**A.** > 100 µM

**Q.** What about the TGI [42] of the same compound?
**A.** > 100 µM

**Q.** And the TGI [43]?
**A.** > 100 µM

**Q.** What about the TGI [44] of the same compound?
**A.** > 100 µM

**Q.** What about the TGI [45] of the same compound?
**A.** > 100 µM

**Q.** What about the TGI [46] of the same compound?
**A.** > 100 µM

**Q.** And the TGI [47]?
**A.** > 100 µM

**Q.** And the TGI [48]?
**A.** > 100 µM

**Q.** And the TGI [49]?
**A.** > 100 µM

**Q.** What about the TGI [50] of the same compound?
**A.** > 100 µM

**Q.** And the TGI [51]?
**A.** > 100 µM

**Q.** What about the TGI [52] of the same compound?
**A.** > 100 µM

**Q.** For COc1ccc(O)c(/C(C)=N/NC(=S)N(C)C)c1, which TGI [1] is on record?
**A.** > 100 µM

**Q.** And the TGI [2]?
**A.** > 100 µM

**Q.** What about the TGI [4] of the same compound?
**A.** > 100 µM

**Q.** And the TGI [5]?
**A.** > 100 µM

**Q.** What about the TGI [6] of the same compound?
**A.** > 100 µM

**Q.** What about the TGI [53] of the same compound?
**A.** > 100 µM

**Q.** What about the TGI [54] of the same compound?
**A.** > 71.6 µM

**Q.** What about the TGI [7] of the same compound?
**A.** > 100 µM

**Q.** And the TGI [8]?
**A.** > 100 µM

**Q.** And the TGI [9]?
**A.** > 100 µM

**Q.** And the TGI [10]?
**A.** > 100 µM

**Q.** What about the TGI [11] of the same compound?
**A.** > 88.5 µM

**Q.** What about the TGI [12] of the same compound?
**A.** > 100 µM

**Q.** And the TGI [13]?
**A.** > 100 µM

**Q.** What about the TGI [14] of the same compound?
**A.** > 100 µM

**Q.** And the TGI [15]?
**A.** > 100 µM

**Q.** What about the TGI [16] of the same compound?
**A.** > 100 µM

**Q.** And the TGI [55]?
**A.** > 100 µM

**Q.** What about the TGI [17] of the same compound?
**A.** > 100 µM

**Q.** What about the TGI [18] of the same compound?
**A.** > 100 µM

**Q.** And the TGI [19]?
**A.** > 100 µM

**Q.** What about the TGI [20] of the same compound?
**A.** > 100 µM

**Q.** And the TGI [21]?
**A.** > 100 µM

**Q.** What about the TGI [22] of the same compound?
**A.** > 100 µM

**Q.** What about the TGI [23] of the same compound?
**A.** > 100 µM

**Q.** What about the TGI [24] of the same compound?
**A.** > 100 µM

**Q.** And the TGI [25]?
**A.** > 100 µM

**Q.** What about the TGI [26] of the same compound?
**A.** > 100 µM

**Q.** What about the TGI [27] of the same compound?
**A.** > 100 µM

**Q.** And the TGI [28]?
**A.** > 100 µM

**Q.** What about the TGI [29] of the same compound?
**A.** > 100 µM

**Q.** What about the TGI [30] of the same compound?
**A.** > 100 µM

**Q.** What about the TGI [31] of the same compound?
**A.** > 100 µM

**Q.** And the TGI [56]?
**A.** > 100 µM

**Q.** What about the TGI [57] of the same compound?
**A.** > 100 µM

**Q.** And the TGI [33]?
**A.** > 100 µM

**Q.** What about the TGI [34] of the same compound?
**A.** > 100 µM

**Q.** What about the TGI [35] of the same compound?
**A.** > 100 µM

**Q.** What about the TGI [36] of the same compound?
**A.** > 100 µM

**Q.** And the TGI [37]?
**A.** > 100 µM

**Q.** And the TGI [38]?
**A.** > 100 µM

**Q.** What about the TGI [58] of the same compound?
**A.** > 100 µM

**Q.** What about the TGI [39] of the same compound?
**A.** > 100 µM

**Q.** And the TGI [40]?
**A.** > 100 µM

**Q.** And the TGI [41]?
**A.** > 94.5 µM

**Q.** And the TGI [42]?
**A.** > 100 µM

**Q.** And the TGI [43]?
**A.** > 100 µM

**Q.** What about the TGI [44] of the same compound?
**A.** > 100 µM

**Q.** What about the TGI [59] of the same compound?
**A.** 54.3 µM

**Q.** And the TGI [45]?
**A.** > 100 µM

**Q.** And the TGI [46]?
**A.** > 100 µM

**Q.** What about the TGI [47] of the same compound?
**A.** > 100 µM

**Q.** What about the TGI [48] of the same compound?
**A.** > 100 µM

**Q.** What about the TGI [49] of the same compound?
**A.** > 100 µM

**Q.** And the TGI [50]?
**A.** 22.9 µM

**Q.** What about the TGI [51] of the same compound?
**A.** > 100 µM

**Q.** And the TGI [52]?
**A.** > 100 µM
